Experimental data from the NIST ThermoML archive (doi:10.1016/j.jct.2018.12.028).

Assay: wn = mass fraction of the nth substance listed
Settings: 101.3 kPa, Liquid; for viscosity: Falling or rolling sphere viscometry; for mass density: Vibrating tube method

COCCO [2-methoxyethan-1-ol] + NCCO
Settings | mass density [kg/m3] | viscosity [mPa·s]
293.15 K, w2 = 0 | 964.7 | 1.692
293.15 K, w2 = 0.1 | 971.8 | 2.321
293.15 K, w2 = 0.3 | 984.5 | 4.371
293.15 K, w2 = 0.5 | 995.6 | 7.952
293.15 K, w2 = 0.7 | 1005.1 | 13
293.15 K, w2 = 0.898 | 1013.4 | 20.5
298.15 K, w2 = 0 | 960.1 | 1.527
298.15 K, w2 = 0.1 | 967.3 | 2.065
298.15 K, w2 = 0.3 | 980.2 | 3.765
298.15 K, w2 = 0.5 | 991.4 | 6.634
298.15 K, w2 = 0.7 | 1001 | 10.51
298.15 K, w2 = 0.898 | 1009.4 | 16.17
303.15 K, w2 = 0 | 955.5 | 1.386
303.15 K, w2 = 0.1 | 962.8 | 1.849
303.15 K, w2 = 0.3 | 975.8 | 3.269
303.15 K, w2 = 0.5 | 987.1 | 5.598
303.15 K, w2 = 0.7 | 996.9 | 8.619
303.15 K, w2 = 0.898 | 1005.4 | 12.97
308.15 K, w2 = 0 | 950.9 | 1.262
308.15 K, w2 = 0.1 | 958.3 | 1.664
308.15 K, w2 = 0.3 | 971.5 | 2.861
308.15 K, w2 = 0.5 | 982.9 | 4.773
308.15 K, w2 = 0.7 | 992.8 | 7.158
308.15 K, w2 = 0.898 | 1001.4 | 10.55
313.15 K, w2 = 0 | 946.2 | 1.155
313.15 K, w2 = 0.1 | 953.7 | 1.504
313.15 K, w2 = 0.3 | 967.1 | 2.521
313.15 K, w2 = 0.5 | 978.6 | 4.105
313.15 K, w2 = 0.7 | 988.6 | 6.011
313.15 K, w2 = 0.898 | 997.3 | 8.699
318.15 K, w2 = 0 | 941.5 | 1.061
318.15 K, w2 = 0.1 | 949.1 | 1.367
318.15 K, w2 = 0.3 | 962.7 | 2.235
318.15 K, w2 = 0.5 | 974.3 | 3.561
318.15 K, w2 = 0.7 | 984.4 | 5.098
318.15 K, w2 = 0.898 | 993.3 | 7.265
323.15 K, w2 = 0 | 936.7 | 0.9781
323.15 K, w2 = 0.1 | 944.5 | 1.246
323.15 K, w2 = 0.3 | 958.2 | 1.992
323.15 K, w2 = 0.5 | 970 | 3.112
323.15 K, w2 = 0.7 | 980.3 | 4.367
323.15 K, w2 = 0.898 | 989.2 | 6.134
328.15 K, w2 = 0 | 932 | 0.905
328.15 K, w2 = 0.1 | 939.9 | 1.141
328.15 K, w2 = 0.3 | 953.8 | 1.786
328.15 K, w2 = 0.5 | 965.7 | 2.741
328.15 K, w2 = 0.7 | 976 | 3.775
328.15 K, w2 = 0.898 | 985.1 | 5.229
333.15 K, w2 = 0 | 927.2 | 0.8397
333.15 K, w2 = 0.1 | 935.2 | 1.049
333.15 K, w2 = 0.3 | 949.2 | 1.609
333.15 K, w2 = 0.5 | 961.3 | 2.427
333.15 K, w2 = 0.7 | 971.8 | 3.288
333.15 K, w2 = 0.898 | 981 | 4.503
338.15 K, w2 = 0 | 922.3 | 0.7818
338.15 K, w2 = 0.1 | 930.4 | 0.967
338.15 K, w2 = 0.3 | 944.7 | 1.456
338.15 K, w2 = 0.5 | 956.9 | 2.161
338.15 K, w2 = 0.7 | 967.5 | 2.884
338.15 K, w2 = 0.898 | 976.9 | 3.91
343.15 K, w2 = 0 | 917.4 | 0.7298
343.15 K, w2 = 0.1 | 925.7 | 0.8945
343.15 K, w2 = 0.3 | 940.1 | 1.324
343.15 K, w2 = 0.5 | 952.5 | 1.936
343.15 K, w2 = 0.7 | 963.3 | 2.546
343.15 K, w2 = 0.898 | 972.7 | 3.42
348.15 K, w2 = 0 | 912.4 | 0.6834
348.15 K, w2 = 0.1 | 920.8 | 0.8302
348.15 K, w2 = 0.3 | 935.5 | 1.207
348.15 K, w2 = 0.5 | 948 | 1.741
348.15 K, w2 = 0.7 | 958.9 | 2.261
348.15 K, w2 = 0.898 | 968.5 | 3.011
353.15 K, w2 = 0 | 907.4 | 0.6409
353.15 K, w2 = 0.1 | 916 | 0.7712
353.15 K, w2 = 0.3 | 930.8 | 1.105
353.15 K, w2 = 0.5 | 943.5 | 1.568
353.15 K, w2 = 0.7 | 954.6 | 2.019
353.15 K, w2 = 0.898 | 964.3 | 2.67
